Measured values as given in US8633166B2, “Methicillin-resistant Staphylococcus aureus active metabolites” (priority 2009, dated 2014).
≈ marks a conversion by molar mass, not a printed value.

Columns and labels:
Assay type in all cases: cell-based
enterococci = experiment: In vitro MIC, for enterococci; conditions: E. faecalis and E. faecium, vancomycin-susceptible and vancomycin-resistant strains
Method: (§1) All test articles were dissolved in DMSO. Stock solutions were prepared at 40-fold the highest concentration in the test plate. The final concentration of DMSO in the test system was 2.5%.
The medium employed for the MIC assay was Mueller Hinton II Broth (MHB II-Becton Dickinson, #212322, Lot #9044411) for most of the organisms. MHB II was supplemented with 2% lysed horse blood (Cleveland Scientific Lot #22299-1) to accommodate the growth of Streptococcus pneumoniae, Streptococcus pyogenes and Streptococcus agalactiae. The media were prepared at 102.5% the normal weight to offset the dilution created by the addition of 5 μL drug solution to each well of the microdilution panels. […]
(§2) Plates were stacked 3 high, covered with a lid on the top plate, placed in plastic bags, and incubated at 35° C. for approximately 18 hours for most of the isolates. The Streptococcus plates were read after 20 hours of incubation. […] The MIC was read and recorded as the lowest concentration of drug that inhibited visible growth of the organism.

Streptococcus pneumoniae = experiment: In vitro MIC, broth microdilution (CLSI); conditions: MHB II with 2% lysed horse blood
Method: as §1
(§3) The medium employed for the MIC assay was Mueller Hinton II Broth (MHB II-Becton Dickinson, #212322, Lot #9044411) for most of the organisms. MHB II was supplemented with 2% lysed horse blood (Cleveland Scientific Lot #22299-1) to accommodate the growth of Streptococcus pneumoniae, Streptococcus pyogenes and Streptococcus agalactiae. The media were prepared at 102.5% the normal weight to offset the dilution created by the addition of 5 μL drug solution to each well of the microdilution panels.
(§4) The MIC assay method followed the procedure described by the Clinical and Laboratory Standards Institute (see Clinical and Laboratory Standards Institute. Methods for Dilution Antimicrobial, Susceptibility Tests for Bacteria That Grow Aerobically; Approved Standard—Eighth Edition. CLSI document M07-A8 [ISBN 1-56238-689-1]. Clinical and Laboratory, Standards Institute, 940 West Valley Road, Suite 1400, Wayne, Pa. 19087-1898 USA, 2009) and employed automated liquid handlers to conduct serial dilutions and liquid transfers. Automated liquid handlers included the Multidrop 384 (Labsystems, Helsinki, Finland), Biomek 2000 and Multimek 96 (Beckman Coulter, Fullerton Calif.).
(§5) The wells of Columns 2-12 of standard 96-well microdilution plates (Falcon 3918) were filled with 150 μL of DMSO on the Multidrop 384. The drugs (300 μL) were dispensed into Column 1 of the appropriate row in these plates. These would become the mother plates from which the test plates (daughter plates) were prepared. The Biomek 2000 completed serial transfers through Column 11 in the mother plates. The wells of Column 12 contained no drug and were the organism growth control wells in the daughter plates. The daughter plates were loaded with 185 μL of the appropriate test media (described above) using the Multidrop 384. The daughter plates were prepared on the Multimek 96 instrument which transferred 5 μL of drug solution from each well of a mother plate to each corresponding well of each daughter plate in a single step. Therefore, the test agents were maintained in solution in 100% DMSO up until the point of being added to the final test medium.
(§6) Standardized inoculum of each organism was prepared per CLSI methods (See Clinical and Laboratory Standards Institute. Performance Standards for Antimicrobial Susceptibility Testing; Nineteenth Informational Supplement. CLSI document M100-S19 [ISBN 1-56238-690-5]. Clinical and Laboratory Standards Institute, 940 West Valley Road, Suite 1400, Wayne, Pa. 19087-1898 USA, 2009.). Suspensions were prepared in MHB to equal the turbidity of a 0.5 McFarland standard. The suspensions were diluted 1:9 in broth appropriate to the organism. The inoculum for each organism was dispensed into sterile reservoirs divided by width (Beckman Coulter), and the Biomek 2000 was used to inoculate the plates. Daughter plates were placed on the Biomek 2000 work surface reversed so that inoculation took place from low to high drug concentration. The Biomek 2000 delivered 10 μL of standardized inoculum into each well. This yielded a final cell concentration in the daughter plates of approximately 5×10^5 colony-forming-units/mL. Thus, the wells of the daughter plates ultimately contained 185 μL of broth, 5 μL of drug solution, and 10 μL of bacterial inoculum. The final concentration of DMSO in the assay plate was 2.5%.
as §2, with “incubation. The microplates were viewed from the bottom using a plate viewer.” for “incubation.”

Streptococcus pyogenes = experiment: In vitro MIC, broth microdilution (CLSI); conditions: MHB II with 2% lysed horse blood
Method: as §1, §3, §4, §5, §6
as §2, with “incubation. The microplates were viewed from the bottom using a plate viewer.” for “incubation.”

Enterococcus faecium = experiment: In vitro MIC, broth microdilution (CLSI)
Method: as §1, §3, §4, §5, §6
as §2, with “incubation. The microplates were viewed from the bottom using a plate viewer.” for “incubation.”

Enterococcus faecalis = experiment: In vitro MIC, broth microdilution (CLSI)
Method: as §1, §3, §4, §5, §6
as §2, with “incubation. The microplates were viewed from the bottom using a plate viewer.” for “incubation.”

Streptococcus agalactiae = experiment: In vitro MIC, broth microdilution (CLSI); conditions: MHB II with 2% lysed horse blood
Method: as §1, §3, §4, §5, §6
as §2, with “incubation. The microplates were viewed from the bottom using a plate viewer.” for “incubation.”

[1] = test system: Staphylococcus epidermidis; experiment: In vitro MIC, broth microdilution (CLSI)
Method: as §1, §3, §4, §5, §6
as §2, with “incubation. The microplates were viewed from the bottom using a plate viewer.” for “incubation.”

Staphylococcus aureus = experiment: In vitro MIC, broth microdilution (CLSI)
Method: as §1, §3, §4, §5, §6
as §2, with “incubation. The microplates were viewed from the bottom using a plate viewer.” for “incubation.”

## C[C@@H]1O[C@@H](Oc2c(-c3ccc(O)cc3)oc3cc(O)cc(O)c3c2=O)[C@H](OC(=O)/C=C/c2ccc(O)cc2)[C@H](OC(=O)/C=C/c2ccc(O)cc2)[C@H]1O [Compound 1, kaempferol 3-O-α-L-(2″,3″-di-E-p-coumaroyl)rhamnoside]
enterococci
  activity against enterococci: inhibited multiple strains
Streptococcus pneumoniae; MMX 748, PRSP, CHP
  MIC: >16 µg/mL
Streptococcus pneumoniae; MMX 866, PSSP, CHP
  MIC: >16 µg/mL
Streptococcus pneumoniae; MMX 1195, CLSI QC, ATCC 49619
  MIC: >16 µg/mL
Streptococcus pneumoniae; MMX 3130, PSSP, UCLA
  MIC: >16 µg/mL
Streptococcus pneumoniae; MMX 3160, PRSP, UCLA
  MIC: >16 µg/mL
Streptococcus pneumoniae; MMX 3937, PSSP, Mt. Sinai
  MIC: >16 µg/mL
Streptococcus pneumoniae; MMX 3953, PRSP, Mt. Sinai
  MIC: >16 µg/mL
Streptococcus pyogenes; MMX 718, CHP
  MIC: >16 µg/mL
Streptococcus pyogenes; MMX 2572, UCLA
  MIC: >16 µg/mL
Streptococcus pyogenes; MMX 3928, Mt. Sinai
  MIC: >16 µg/mL
Enterococcus faecium; MMX 0799, VSE, CHP
  MIC: >8 µg/mL
Enterococcus faecium; MMX 0845, VSE, UCLA
  MIC: 1 µg/mL (≈ 1.38 µM)
Enterococcus faecium; MMX 1238, VRE, Mt. Sinai
  MIC: 0.5 µg/mL (≈ 0.69 µM)
Enterococcus faecium; MMX 1259, VSE, Mt. Sinai
  MIC: >8 µg/mL
Enterococcus faecium; MMX 4024, VRE, CHP
  MIC: >8 µg/mL
Enterococcus faecium; MMX 4048, VRE, UCLA
  MIC: >8 µg/mL
Enterococcus faecalis; MMX 101, CLSI QC, ATCC 29212
  MIC: 8 µg/mL (≈ 11 µM)
Enterococcus faecalis; MMX 742, VSE, CHP
  MIC: >8 µg/mL
Enterococcus faecalis; MMX 3199, VSE, UCLA
  MIC: 4 µg/mL (≈ 5.52 µM)
Enterococcus faecalis; MMX 3821, VRE, Mt. Sinai
  MIC: 4 µg/mL (≈ 5.52 µM)
Enterococcus faecalis; MMX 3896, VSE, Mt. Sinai
  MIC: 4 µg/mL (≈ 5.52 µM)
Enterococcus faecalis; MMX 4131, VRE, CHP
  MIC: 1 µg/mL (≈ 1.38 µM)
Enterococcus faecalis; MMX 4160, VRE, UCLA
  MIC: 4 µg/mL (≈ 5.52 µM)
Streptococcus agalactiae; MMX 3743, Mt. Sinai
  MIC: >16 µg/mL
Streptococcus agalactiae; MMX 4093, UCLA
  MIC: >16 µg/mL
Streptococcus agalactiae; MMX 4106, CHP
  MIC: >16 µg/mL
[1]; MMX 762, MRSE, CHP
  MIC: >8 µg/mL
[1]; MMX 826, MRSE, UCLA
  MIC: 8 µg/mL (≈ 11 µM)
[1]; MMX 835, MSSE, UCLA
  MIC: 4 µg/mL (≈ 5.52 µM)
[1]; MMX 3703, MSSE, CHP
  MIC: 4 µg/mL (≈ 5.52 µM)
[1]; MMX 3752, MRSE, Mt. Sinai
  MIC: >8 µg/mL
[1]; MMX 3763, MSSE, Mt. Sinai
  MIC: 4 µg/mL (≈ 5.52 µM)
Staphylococcus aureus; MMX 100, CLSI QC, ATCC 29213
  MIC: >8 µg/mL
Staphylococcus aureus; MMX 753, MSSA, CHP
  MIC: >8 µg/mL
Staphylococcus aureus; MMX 758, MRSA, CHP
  MIC: >8 µg/mL
Staphylococcus aureus; MMX 2055, MRSA, UCLA
  MIC: >8 µg/mL
Staphylococcus aureus; MMX 2063, MSSA, UCLA
  MIC: >8 µg/mL
Staphylococcus aureus; MMX 3856, MSSA, Mt. Sinai
  MIC: >8 µg/mL
Staphylococcus aureus; MMX 3894, MRSA, Mt. Sinai
  MIC: >8 µg/mL
